Measured values taken from patent US20260109712A1, “RIFAMYCINS FOR NONTUBERCULOUS MYCOBACTERIA” (priority 2022, published 2026).
Values after ≈ are worked out from the molar mass of the structure shown. Like-named read-outs stand apart in the source and are kept apart here.

Assays:
[1] = test system: M. abscessus ATCC 19977; assay: MIC assay in 96-well plate format, wild-type strain; type: cell-based, Mycobacterium abscessus; conditions: for MICWT: Table 10; for MIC: Mycobacteroides abscessus, ATCC19977
Summary of the method: (§1)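 Two-fold, ten-point dilutions in 7H9 with 2% DMSO; mid-log culture diluted to OD600=0.1 (1×10^7 CFU/mL). Incubated 3 days at 37 °C, shaking 110 RPM; growth = Day 3 minus Day 0 OD600, expressed as percentage of drug-free growth and plotted against concentration. Two biological replicates.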

[2] = test system: Δarr M. abscessus; assay: MIC assay, isogenic arr-deleted strain; type: cell-based, Mycobacterium abscessus; conditions: Table 10
Summary of the method: as §1

[3] = test system: Mycobacterium abscessus; assay: MIC against Mycobacterium abscessus (strain not given); type: cell-based
[4] = Plasma protein binding assay (rapid equilibrium dialysis); type: in vitro ADME; conditions: for fraction unbound at 4 h, 10000 ng/mL / plasma unbound fraction: plasma
Summary of the method: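 Plasma was spiked to 10,000 ng/mL compound and dialysed against PBS by rapid equilibrium dialysis for 4 h at 37° C with shaking at 300 RPM. Plasma and buffer aliquots were matrix-matched 1:1 […] and quantified by LC-MS/MS.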

[5] = test system: CYP3A4; conditions: human, 10 μM
Protocol: The threshold cycle (CT) was measured for each isoform cDNA by real time qRT-PCR. The mRNA level of each isoform was assessed by the relative quantifiation with reference gene (GAPDH) as the normalizer method. The normalized fold induction was calculated by 2^−ΔΔCT method, in which 0.1% DMSO was used as the reference (vehicle control). The induction potential of each test compound was analyzed by comparing its fold induction to a pre-determined cutoff value for each lot of hepatocytes. The hepatocytes lots used in this study were validated using 10 known inducers and 5 known non-inducers for each isozyme. A cutoff value is determined based on the validation study for each hepatocytes lot.

[6] = Mouse pharmacokinetics studies; type: in vivo, CD-1 mice; conditions: mouse, in vivo
Protocol: Blood was captured in CB300 blood collection tubes containing K2EDTA and stored on ice. Plasma was recovered after centrifugation and stored at −80° C. until analyzed by high pressure liquid chromatography coupled to tandem mass spectrometry (LC-MS/MS). Pharmacokinetic parameters were calculated using non-compartmental pharmacokinetic analysis. […] Extracts were vortexed for 5 minutes and centrifuged at 4000 RPM for 5 minutes. 75 μL of supernatant was transferred for LC-MS/MS analysis and diluted with 75 μL of Milli-Q deionized water. Rifabutin was purchased from Carbosynth. C25-desacetyl rifabutin and rifabutin-d7 were purchased from Toronto Research Chemical. Verapamil was purchased from Sigma-Aldrich. […] Multiple-reaction monitoring of parent/daughter transitions in electrospray positive-ionization mode was used to quantify all analytes. […] Data processing was performed using Analyst software (version 1.6.2; Applied Biosystems Sciex).

[7] = Mycobacteroides abscessus, 72 h, Table 22, read-out: MICMab
[8] = Table 15, heterocyclic aromatic carbamates, read-out: WT Mab MIC
[9] = Mycobacterium abscessus ATCC 19977, Table 11, read-out: MIC

SMILES | MICWT [1] | MICΔorr [2] | MIC [3, 7] | CYP3A4 gene fold-induction at 10 μM [5] | MIC ([3]; Table 13, read-out: Mab MIC) | ƒu [4] | plasma unbound fraction [4] | other results
CO[C@H]1/C=C/O[C@@]2(C)Oc3c(C)c(O)c4c(c3C2=O)C2=NC3(CCN(CC(C)C)CC3)NC2=C(NC(=O)/C(C)=C/C=C/[C@H](C)[C@H](O)[C@@H](C)[C@@H](O)[C@@H](C)[C@H](OC(=O)c2ccccc2)[C@@H]1C)C4=O [UMN7] | 0.053 µM | 0.059 µM | 0.053 µM (≈ 0.0482 µg/mL) | 8.6 | – | – | – | fraction unbound at 4 h, 10000 ng/mL [4]: 0.0003
CO[C@H]1/C=C/O[C@@]2(C)Oc3c(C)c(O)c4c(c3C2=O)C2=NC3(CCN(CC(C)C)CC3)NC2=C(NC(=O)/C(C)=C/C=C/[C@H](C)[C@H](O)[C@@H](C)[C@@H](O)[C@@H](C)[C@H](OC(=O)NC2CC(C)(C)NC(C)(C)C2)[C@@H]1C)C4=O [UMN32] | 0.04 µM | 0.09 µM | 0.04 µM (≈ 0.0395 µg/mL) | 0.6 | – | – | – | MIC ([1]; Table 14, carbamate analogs, read-out: WT Mab MIC): 0.04 µM (≈ 0.0395 µg/mL); ƒu ([4]; 4 h, 10000 ng/mL): 6.7%; fraction unbound at 4 h, 10000 ng/mL [4]: 0.067
CO[C@H]1/C=C/O[C@@]2(C)Oc3c(C)c(O)c4c(c3C2=O)C2=NC3(CCN(CC(C)C)CC3)NC2=C(NC(=O)/C(C)=C/C=C/[C@H](C)[C@H](O)[C@@H](C)[C@@H](O)[C@@H](C)[C@H](OC(=O)c2ccccn2)[C@@H]1C)C4=O [UMN48] | 0.02 µM | 0.026 µM | – | – | 0.02 µM (≈ 0.0182 µg/mL) | 3.0% | 2.95% | –
CO[C@H]1/C=C/O[C@@]2(C)Oc3c(C)c(O)c4c(c3C2=O)C2=NC3(CCN(CC(C)C)CC3)NC2=C(NC(=O)/C(C)=C/C=C/[C@H](C)[C@H](O)[C@@H](C)[C@@H](O)[C@@H](C)[C@H](OC(=O)c2ccnnc2)[C@@H]1C)C4=O [UMN49] | 0.033 µM | 0.034 µM | – | – | 0.033 µM (≈ 0.0301 µg/mL) | 8.2% | 8.22% | –
CO[C@H]1/C=C/O[C@@]2(C)Oc3c(C)c(O)c4c(c3C2=O)C2=NC3(CCN(CC(C)C)CC3)NC2=C(NC(=O)/C(C)=C/C=C/[C@H](C)[C@H](O)[C@@H](C)[C@@H](O)[C@@H](C)[C@H](OC(=O)c2ccncn2)[C@@H]1C)C4=O [UMN50] | 0.035 µM | 0.036 µM | – | – | 0.035 µM (≈ 0.0319 µg/mL) | 7.2% | 7.22% | –
CO[C@H]1/C=C/O[C@@]2(C)Oc3c(C)c(O)c4c(c3C2=O)C2=NC3(CCN(CC(C)C)CC3)NC2=C(NC(=O)/C(C)=C/C=C/[C@H](C)[C@H](O)[C@@H](C)[C@@H](O)[C@@H](C)[C@H](OC(=O)c2cnccn2)[C@@H]1C)C4=O [UMN51] | 0.03 µM | 0.027 µM | – | – | 0.03 µM (≈ 0.0273 µg/mL) | 7.0% | 6.96% | –
CO[C@H]1/C=C/O[C@@]2(C)Oc3c(C)c(O)c4c(c3C2=O)C2=NC3(CCN(CC(C)C)CC3)NC2=C(NC(=O)/C(C)=C/C=C/[C@H](C)[C@H](O)[C@@H](C)[C@@H](O)[C@@H](C)[C@H](OC(=O)C2CCC2)[C@@H]1C)C4=O [UMN80] | 1.2 µM | 0.026 µM | – | – | 1.2 µM (≈ 1.06 µg/mL) | 0.3% | 0.29% | –
CO[C@H]1/C=C/O[C@@]2(C)Oc3c(C)c(O)c4c(c3C2=O)C2=NC3(CCN(CC(C)C)CC3)NC2=C(NC(=O)/C(C)=C/C=C/[C@H](C)[C@H](O)[C@@H](C)[C@@H](O)[C@@H](C)[C@H](OC(=O)C2CCCC2)[C@@H]1C)C4=O [UMN81] | 1.2 µM | 0.03 µM | – | – | 1.2 µM (≈ 1.08 µg/mL) | 0.05% | 0.05% | –
CO[C@H]1/C=C/O[C@@]2(C)Oc3c(C)c(O)c4c(c3C2=O)C2=NC3(CCN(CC(C)C)CC3)NC2=C(NC(=O)/C(C)=C/C=C/[C@H](C)[C@H](O)[C@@H](C)[C@@H](O)[C@@H](C)[C@H](OC(=O)C2CCCCC2)[C@@H]1C)C4=O [UMN82] | 0.54 µM | 0.05 µM | – | – | 1.1 µM (≈ 1.01 µg/mL) | 0.03% | 0.03% | –
CO[C@H]1/C=C/O[C@@]2(C)Oc3c(C)c(O)c4c(c3C2=O)C2=NC3(CCN(CC(C)C)CC3)NC2=C(NC(=O)/C(C)=C/C=C/[C@H](C)[C@H](O)[C@@H](C)[C@@H](O)[C@@H](C)[C@H](OC(=O)c2cscn2)[C@@H]1C)C4=O [UMN94] | – | – | – | – | 0.036 µM (≈ 0.033 µg/mL) | 2.9% | – | CL [6]: 5.0 mL/min/kg; F [6]: 77%; Vd [6]: 1.22 L/kg; ƒAUC/MIC [6]: 22.4; AUCp.o. ([6]; po): 25765 ng·h/mL
CO[C@H]1/C=C/O[C@@]2(C)Oc3c(C)c(O)c4c(c3C2=O)C2=NC3(CCN(CC(C)C)CC3)NC2=C(NC(=O)/C(C)=C/C=C/[C@H](C)[C@H](O)[C@@H](C)[C@@H](O)[C@@H](C)[C@H](OC(=O)Nc2ccncn2)[C@@H]1C)C4=O [UMN118] | – | – | 0.032 µM (≈ 0.0296 µg/mL) | 2.0 | – | – | – | MIC [1, 8]: 0.032 µM (≈ 0.0296 µg/mL); ƒu ([4]; 4 h, 10000 ng/mL): 5.1%
CO[C@H]1/C=C/O[C@@]2(C)Oc3c(C)c(O)c4c(c3C2=O)C2=NC3(CCN(CC(C)C)CC3)NC2=C(NC(=O)/C(C)=C/C=C/[C@H](C)[C@H](O)[C@@H](C)[C@@H](O)[C@@H](C)[C@H](OC(=O)Nc2cccnn2)[C@@H]1C)C4=O [UMN121] | – | – | 0.038 µM (≈ 0.0352 µg/mL) | 2.7 | – | – | – | MIC [1, 9]: 0.038 µM (≈ 0.0352 µg/mL)
CO[C@H]1/C=C/O[C@@]2(C)Oc3c(C)c(O)c4c(c3C2=O)C2=NC3(CCN(CC(C)C)CC3)NC2=C(NC(=O)/C(C)=C/C=C/[C@H](C)[C@H](O)[C@@H](C)[C@@H](O)[C@@H](C)[C@H](OC(=O)Nc2ccn3nccc3c2)[C@@H]1C)C4=O [UMN123] | – | – | 0.051 µM (≈ 0.0492 µg/mL) | 1.2 | – | – | – | –
CO[C@H]1/C=C/O[C@@]2(C)Oc3c(C)c(O)c4c(c3C2=O)C2=NC3(CCN(CC(C)C)CC3)NC2=C(NC(=O)/C(C)=C/C=C/[C@H](C)[C@H](O)[C@@H](C)[C@@H](O)[C@@H](C)[C@H](OC(=O)Nc2cccn3ccnc23)[C@@H]1C)C4=O [UMN125] | – | – | 0.03 µM (≈ 0.0289 µg/mL) | 3.6 | – | – | – | –
CO[C@H]1/C=C/O[C@@]2(C)Oc3c(C)c(O)c4c(c3C2=O)C2=NC3(CCN(CC(C)C)CC3)NC2=C(NC(=O)/C(C)=C/C=C/[C@H](C)[C@H](O)[C@@H](C)[C@@H](O)[C@@H](C)[C@H](OC(=O)Nc2c(C)nc3ccccn23)[C@@H]1C)C4=O [UMN131] | – | – | 0.049 µM (≈ 0.0479 µg/mL) | 3.0 | – | – | – | MIC [1, 9]: 0.049 µM (≈ 0.0479 µg/mL)
CO[C@H]1/C=C/O[C@@]2(C)Oc3c(C)c(O)c4c(c3C2=O)C2=NC3(CCN(CC(C)C)CC3)NC2=C(NC(=O)/C(C)=C/C=C/[C@H](C)[C@H](O)[C@@H](C)[C@@H](O)[C@@H](C)[C@H](OC(=O)Nc2cscn2)[C@@H]1C)C4=O [UMN132] | – | – | 0.026 µM (≈ 0.0242 µg/mL) | 1.4 | – | – | – | MIC [1, 8]: 0.026 µM (≈ 0.0242 µg/mL); ƒu ([4]; 4 h, 10000 ng/mL): 1.7%
CO[C@H]1/C=C/O[C@@]2(C)Oc3c(C)c(O)c4c(c3C2=O)C2=NC3(CCN(CC(C)C)CC3)NC2=C(NC(=O)/C(C)=C/C=C/[C@H](C)[C@H](O)[C@@H](C)[C@@H](O)[C@@H](C)[C@H](OC(=O)Nc2cncs2)[C@@H]1C)C4=O [UMN133] | – | – | 0.046 µM (≈ 0.0428 µg/mL) | 1.7 | – | – | – | MIC [1, 8]: 0.046 µM (≈ 0.0428 µg/mL); ƒu ([4]; 4 h, 10000 ng/mL): 3.0%
